According to article PMC10685318, “Trans-cyclosulfamidate mannose-configured cyclitol allows isoform-dependent inhibition of GH47 α-D-mannosidases through a bump–hole strategy” (Chemical Science, 2023):

Tests used:
[1] = system: GH47 model enzyme from Caulobacter K31 strain; assay: Crystal soaks with WT GH47; format: binding
MAN2A2 = target: T1, MAN2A2 (Homo sapiens, UniProt P49641); assay: 4-MU-α-man activity assay in overexpressed cell lysates; format: biochemical
T1 construct: expressed in transfected cells
T1 sequence (P49641 1-1150): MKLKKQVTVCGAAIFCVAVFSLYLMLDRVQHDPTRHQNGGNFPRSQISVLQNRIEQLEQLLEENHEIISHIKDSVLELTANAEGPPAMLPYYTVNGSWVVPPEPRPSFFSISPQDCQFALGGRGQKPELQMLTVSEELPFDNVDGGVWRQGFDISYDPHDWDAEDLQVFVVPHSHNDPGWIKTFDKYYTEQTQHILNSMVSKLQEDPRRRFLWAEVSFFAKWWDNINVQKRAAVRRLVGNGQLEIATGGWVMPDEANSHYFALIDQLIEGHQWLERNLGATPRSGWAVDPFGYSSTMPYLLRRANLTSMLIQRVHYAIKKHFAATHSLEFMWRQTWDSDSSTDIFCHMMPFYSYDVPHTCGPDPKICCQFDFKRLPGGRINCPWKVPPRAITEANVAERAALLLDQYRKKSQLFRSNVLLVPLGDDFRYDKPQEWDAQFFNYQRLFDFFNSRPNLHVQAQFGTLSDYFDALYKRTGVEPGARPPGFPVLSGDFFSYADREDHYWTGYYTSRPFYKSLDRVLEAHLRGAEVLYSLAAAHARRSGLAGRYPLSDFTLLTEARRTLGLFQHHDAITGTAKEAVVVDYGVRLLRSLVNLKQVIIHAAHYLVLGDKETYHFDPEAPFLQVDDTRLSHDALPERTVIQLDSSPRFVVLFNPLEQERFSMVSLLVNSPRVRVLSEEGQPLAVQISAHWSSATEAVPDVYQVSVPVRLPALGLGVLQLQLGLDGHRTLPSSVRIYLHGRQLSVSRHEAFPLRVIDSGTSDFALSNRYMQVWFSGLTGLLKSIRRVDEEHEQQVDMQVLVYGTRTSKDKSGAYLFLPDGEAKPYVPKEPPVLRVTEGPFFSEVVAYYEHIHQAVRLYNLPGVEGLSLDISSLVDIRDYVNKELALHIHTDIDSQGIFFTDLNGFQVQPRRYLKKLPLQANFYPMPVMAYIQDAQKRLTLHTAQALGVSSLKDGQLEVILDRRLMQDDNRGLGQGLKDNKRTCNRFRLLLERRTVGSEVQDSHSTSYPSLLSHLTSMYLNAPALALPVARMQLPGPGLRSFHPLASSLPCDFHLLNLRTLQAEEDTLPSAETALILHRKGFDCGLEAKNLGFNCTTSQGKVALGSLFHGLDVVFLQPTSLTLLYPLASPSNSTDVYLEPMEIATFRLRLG

O=S1(=O)N[C@@H]2[C@@H](O)[C@@H](O)[C@H](O)[C@@H](CO)[C@H]2O1 [compound 6, 1,6-trans-manno-cyclosulfamidate]
binding in crystal soaks [1]: no binding | activity when the buffer was enriched with CoCl2 (MAN2A2; CoCl2): no activity | IC50 (MAN2A2; Zn2+): > 1000 µM
